# Source: ChEMBL document CHEMBL1201862, “PubChem BioAssay data set” (2004)
#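 Cultured in 96-well plates, cells were exposed to test compound for 48 hours across five concentrations. At the GI50, growth is halved.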 Calls of active or inactive are those of the source. Cut-off read from the data, not from the text of the source: active = GI50 up to about 1.1 µM and inactive = higher.
# Columns and labels:
# Assay in all cases: growth of human tumour cells (NCI), 48 h
# [1] = system: SF-539
# [2] = system: U-251
# [3] = system: SN12C
# [4] = system: SK-MEL-2
# [5] = system: Malme-3M
# [6] = system: MOLT-4
# [7] = system: DLD-1
# [8] = system: CCRF-CEM
# [9] = system: XF498
# [10] = system: A549
# [11] = system: NCI-H460
# [12] = system: SR
# [13] = system: HOP-92
# [14] = system: SK-OV-3
# [15] = system: RXF 393
# [16] = system: IGROV-1
# [17] = system: LOX IMVI
# [18] = system: SF-268
# [19] = system: SK-MEL-28
# [20] = system: HT-29
# [21] = system: SNB-78
# [22] = system: TK-10
# [23] = system: DMS-114
# [24] = system: 786-0
# [25] = system: UACC-62
# [26] = system: CAKI-1
# [27] = system: SK-MEL-5
# [28] = system: SNB-19
# [29] = system: OVCAR-5
# [30] = system: ACHN
# [31] = system: HL-60
# [32] = system: HOP-62
# [33] = system: NCI-H23
# [34] = system: UACC-257
# [35] = system: SF-295
# [36] = system: DMS-273
# [37] = system: HOP-18
# [38] = system: A498
# [39] = system: UO-31
# [40] = system: KM12
# [41] = system: NCI-H226
# [42] = system: COLO 205
# [43] = system: M19-MEL
# [44] = system: K562
# [45] = system: SW-620
# [46] = system: EKVX
# [47] = system: LXFL 529
# [48] = system: OVCAR-8
# [49] = system: OVCAR-4
# [50] = system: M14
# [51] = system: HCC 2998
# [52] = system: NCI-H522
# [53] = system: HCT-15
# [54] = system: KM-20L2
# [55] = system: RPMI-8226
# [56] = system: OVCAR-3
# [57] = system: RXF 631
# [58] = system: HCT-116
# [59] = system: SNB-75
compound,measurement,setting,value
N#Cc1ccccc1Sc1ccccc1N,GI50,[1],> 100 µM (inactive)
same,GI50,[2],> 100 µM (inactive)
same,GI50,[3],78.3 µM (inactive)
same,GI50,[4],> 100 µM (inactive)
same,GI50,[5],42.8 µM (inactive)
same,GI50,[6],43.8 µM (inactive)
same,GI50,[7],93.1 µM (inactive)
same,GI50,[8],73.1 µM (inactive)
same,GI50,[9],92 µM (inactive)
same,GI50,[10],67.3 µM (inactive)
same,GI50,[11],> 100 µM (inactive)
same,GI50,[12],72.6 µM (inactive)
same,GI50,[13],20.7 µM (inactive)
same,GI50,[14],> 100 µM (inactive)
same,GI50,[15],80.2 µM (inactive)
same,GI50,[16],31.7 µM (inactive)
same,GI50,[17],> 100 µM (inactive)
same,GI50,[18],> 100 µM (inactive)
same,GI50,[19],> 100 µM (inactive)
same,GI50,[20],> 100 µM (inactive)
same,GI50,[21],> 100 µM (inactive)
same,GI50,[22],> 100 µM (inactive)
same,GI50,[23],49.1 µM (inactive)
same,GI50,[24],> 100 µM (inactive)
same,GI50,[25],50.1 µM (inactive)
same,GI50,[26],36 µM (inactive)
same,GI50,[27],18.7 µM (inactive)
same,GI50,[28],> 100 µM (inactive)
same,GI50,[29],36.1 µM (inactive)
same,GI50,[30],> 100 µM (inactive)
same,GI50,[31],72.6 µM (inactive)
same,GI50,[32],> 100 µM (inactive)
same,GI50,[33],67.8 µM (inactive)
same,GI50,[34],> 100 µM (inactive)
same,GI50,[35],> 100 µM (inactive)
same,GI50,[36],> 100 µM (inactive)
same,GI50,[37],27 µM (inactive)
same,GI50,[38],> 100 µM (inactive)
same,GI50,[39],45.6 µM (inactive)
same,GI50,[40],93.3 µM (inactive)
same,GI50,[41],13 µM (inactive)
same,GI50,[42],> 100 µM (inactive)
same,GI50,[43],> 100 µM (inactive)
same,GI50,[44],70.6 µM (inactive)
same,GI50,[45],> 100 µM (inactive)
same,GI50,[46],77.1 µM (inactive)
same,GI50,[47],61.5 µM (inactive)
same,GI50,[48],> 100 µM (inactive)
same,GI50,[49],64.4 µM (inactive)
CC1=CC(C)(C)N=C2SC(c3ccc(Cl)cc3)=NN12,GI50,[1],31.6 µM (inactive)
same,GI50,[2],23 µM (inactive)
same,GI50,[4],43.6 µM (inactive)
same,GI50,[5],24.9 µM (inactive)
same,GI50,[6],14.9 µM (inactive)
same,GI50,[7],19.5 µM (inactive)
same,GI50,[8],28.2 µM (inactive)
same,GI50,[50],30.5 µM (inactive)
same,GI50,[51],25.6 µM (inactive)
same,GI50,[9],14.2 µM (inactive)
same,GI50,[10],40 µM (inactive)
same,GI50,[11],29.2 µM (inactive)
same,GI50,[13],27.4 µM (inactive)
same,GI50,[14],46.2 µM (inactive)
same,GI50,[52],15.6 µM (inactive)
same,GI50,[53],25.4 µM
same,GI50,[54],22.5 µM (inactive)
same,GI50,[55],12.1 µM (inactive)
same,GI50,[16],> 100 µM (inactive)
same,GI50,[17],40.1 µM (inactive)
same,GI50,[18],27.5 µM (inactive)
same,GI50,[19],36.4 µM (inactive)
same,GI50,[20],12 µM (inactive)
same,GI50,[21],59.2 µM (inactive)
same,GI50,[22],37 µM (inactive)
same,GI50,[23],23.5 µM (inactive)
same,GI50,[24],15.1 µM (inactive)
same,GI50,[25],59.6 µM (inactive)
same,GI50,[26],27.9 µM (inactive)
same,GI50,[27],15.5 µM (inactive)
same,GI50,[28],50.1 µM (inactive)
same,GI50,[29],17.6 µM (inactive)
same,GI50,[30],27.9 µM (inactive)
same,GI50,[56],18.1 µM (inactive)
same,GI50,[31],12.2 µM (inactive)
same,GI50,[32],54.3 µM (inactive)
same,GI50,[33],15.5 µM (inactive)
same,GI50,[34],29.4 µM (inactive)
same,GI50,[35],31.2 µM (inactive)
same,GI50,[36],38 µM (inactive)
same,GI50,[37],21 µM (inactive)
same,GI50,[38],25.8 µM (inactive)
same,GI50,[39],19.8 µM (inactive)
same,GI50,[40],26 µM (inactive)
same,GI50,[41],21.1 µM (inactive)
same,GI50,[42],41.1 µM (inactive)
same,GI50,[43],32 µM (inactive)
same,GI50,[44],21.4 µM (inactive)
same,GI50,[45],32.1 µM (inactive)
same,GI50,[46],3.85 µM (inactive)
same,GI50,[47],32.4 µM (inactive)
same,GI50,[49],26.2 µM (inactive)
Cc1ccc(NC(=O)CC(=O)n2nc(-c3ccccc3)c(/N=N/c3ccccc3C(=O)O)c2-c2ccccc2)cc1,GI50,[1],> 100 µM (inactive)
same,GI50,[3],> 100 µM (inactive)
same,GI50,[4],> 100 µM (inactive)
same,GI50,[57],> 100 µM (inactive)
same,GI50,[5],> 100 µM (inactive)
same,GI50,[6],4.4 µM (inactive)
same,GI50,[7],39.3 µM (inactive)
same,GI50,[51],66.2 µM (inactive)
same,GI50,[10],> 100 µM (inactive)
same,GI50,[12],> 100 µM (inactive)
same,GI50,[13],> 100 µM (inactive)
same,GI50,[14],> 100 µM (inactive)
same,GI50,[52],> 100 µM (inactive)
same,GI50,[53],> 100 µM
same,GI50,[15],> 100 µM (inactive)
same,GI50,[54],84.7 µM (inactive)
same,GI50,[55],> 100 µM (inactive)
same,GI50,[16],> 100 µM (inactive)
same,GI50,[17],> 100 µM (inactive)
same,GI50,[18],> 100 µM (inactive)
same,GI50,[19],> 100 µM (inactive)
same,GI50,[22],38.6 µM (inactive)
same,GI50,[25],> 100 µM (inactive)
same,GI50,[26],> 100 µM (inactive)
same,GI50,[27],> 100 µM (inactive)
same,GI50,[28],> 100 µM (inactive)
same,GI50,[29],> 100 µM (inactive)
same,GI50,[30],51.5 µM (inactive)
same,GI50,[56],> 100 µM (inactive)
same,GI50,[32],> 100 µM (inactive)
same,GI50,[35],> 100 µM (inactive)
same,GI50,[58],> 100 µM (inactive)
same,GI50,[36],> 100 µM (inactive)
same,GI50,[39],28.8 µM (inactive)
same,GI50,[40],> 100 µM (inactive)
same,GI50,[41],> 100 µM (inactive)
same,GI50,[42],> 100 µM (inactive)
same,GI50,[43],> 100 µM (inactive)
same,GI50,[44],> 100 µM (inactive)
same,GI50,[45],> 100 µM (inactive)
same,GI50,[46],1.91 µM (inactive)
same,GI50,[47],> 100 µM (inactive)
same,GI50,[48],> 100 µM (inactive)
same,GI50,[49],> 100 µM (inactive)
CCOC(=O)CNc1nnnn1C1OC(CO)C(O)C1O (stereo not given),GI50,[1],> 100 µM (inactive)
same,GI50,[2],> 100 µM (inactive)
same,GI50,[3],> 100 µM (inactive)
same,GI50,[4],> 100 µM (inactive)
same,GI50,[5],> 100 µM (inactive)
same,GI50,[6],> 100 µM (inactive)
same,GI50,[7],> 100 µM (inactive)
same,GI50,[8],> 100 µM (inactive)
same,GI50,[50],> 100 µM (inactive)
same,GI50,[51],> 100 µM (inactive)
same,GI50,[9],> 100 µM (inactive)
same,GI50,[10],> 100 µM (inactive)
same,GI50,[11],> 100 µM (inactive)
same,GI50,[14],> 100 µM (inactive)
same,GI50,[52],> 100 µM (inactive)
same,GI50,[53],> 100 µM
same,GI50,[15],> 100 µM (inactive)
same,GI50,[54],> 100 µM (inactive)
same,GI50,[55],> 100 µM (inactive)
same,GI50,[16],> 100 µM (inactive)
same,GI50,[17],> 100 µM (inactive)
same,GI50,[18],> 100 µM (inactive)
same,GI50,[20],> 100 µM (inactive)
same,GI50,[21],> 100 µM (inactive)
same,GI50,[59],> 100 µM (inactive)
same,GI50,[22],> 100 µM (inactive)
same,GI50,[23],> 100 µM (inactive)
same,GI50,[24],> 100 µM (inactive)
same,GI50,[25],> 100 µM (inactive)
same,GI50,[26],> 100 µM (inactive)
same,GI50,[27],> 100 µM (inactive)
same,GI50,[29],> 100 µM (inactive)
same,GI50,[30],> 100 µM (inactive)
same,GI50,[56],> 100 µM (inactive)
same,GI50,[32],> 100 µM (inactive)
same,GI50,[34],> 100 µM (inactive)
same,GI50,[35],> 100 µM (inactive)
same,GI50,[58],> 100 µM (inactive)
same,GI50,[36],> 100 µM (inactive)
same,GI50,[38],> 100 µM (inactive)
same,GI50,[39],> 100 µM (inactive)
same,GI50,[40],> 100 µM (inactive)
same,GI50,[41],> 100 µM (inactive)
same,GI50,[42],> 100 µM (inactive)
same,GI50,[43],> 100 µM (inactive)
same,GI50,[44],> 100 µM (inactive)
same,GI50,[45],> 100 µM (inactive)
same,GI50,[46],> 100 µM (inactive)
same,GI50,[47],> 100 µM (inactive)
same,GI50,[48],> 100 µM (inactive)
